Laboratory results published in patent publication US20230345990A1, “PROCESS FOR PRODUCTION OF CONCENTRATES OF CHELATED MINERALS WITH SOYBEAN AMINO ACIDS AND/OR SOYBEAM PROTEIN, AND RELATED PRODUCT” (Yessinergy Holding S.A., priority 2021, published 2023).

Columns and labels:
Type in all cases: in vivo, broilers (Cobb 500 male chicks)
[1] = Foot Pad Lesions (FPL) score in broilers at 42 days
Protocol: (§1) An experiment was developed with the purpose of investigating the effect of providing six different sources of Zn, at two levels of supplementation, in diets based on corn, soybean bran and phytase, with respect to performance and balance of Zn in broilers.
(§2) Feed and water were freely provided throughout an experimental period from 1 to 42 days. The shed room temperature was maintained using 250 Watt infrared lamps and curtains on the sides of the shed. Light was provided for 22 hours/day in a scheme of 12 hours of natural light and 10 hours of artificial light. 2,400 lineage Cobb 500 male chicks were used, distributed in a randomized block design housed on the floor in a shed divided into 120 boxes of 1.0×2.0 meters (3,3×6.6 ft), with reused wood shavings bed, for the purpose of increasing the health challenge of birds.
(§3) The birds were randomly distributed in a 6×2 factorial arrangement with six different sources of Zn and two levels of Zn (40 and 80 mg/kg), totaling 12 treatments with 10 repetitions and 20 animals per box (this being considered one experimental unit).
At 42 days of age, during individual weighing of the birds, the quality of the foot pad was determined, using the Foot Pad Lesions (FPL) score according to Berg (1998) and Van Ham et al. (2019), wherein both foot pads of all animals in the experiment were evaluated. Score 0 was given for cushions without any injuries, 1 for discolored cushions but without deep injuries, and score 2 for cushions with deep injuries (ulcers, blisters, etc.). As this is a subjective fact, only one person was responsible for the assessment of the foot pad score. The Injury Score for each experimental unit was calculated according to the following equation, with FPL index varying from 0 to 200 (all birds having score 2).

[2] = Broiler performance (feed intake, weight gain, feed conversion) with different Zn sources
Description: as §1
The experimental feeds used for the initial phase (1 to 21 days) and for growth (21 to 42 days) were formulated based on corn, soybean bran and phytase, following the recommendations proposed by Rostagno et al. (2017) for each phase.
as §2, with “birds. […]” for “birds.”
The parameters of performance evaluated were feed intake (FI, kg/bird), weight gain (WG, kg/bird), feed conversion (FC, kg/kg).

[3] = Zn balance in broilers (Zn in excreta, retained Zn)
Protocol: as §1, §2, §3
At 33 days of age, excreta were collected for 24 hours by placing a plastic canvas on the floor of each box to determine Zn content (mg/kg of dry matter in excreta), retained Zn (consumed mg minus excreted mg), and Zn balance (retained Zn/consumed Zn x 100).

[4] = level of zinc 40 mg/kg, 1 to 42 days
[5] = level of zinc 80 mg/kg, 1 to 42 days

- Percentage of Retained Zinc ([3]; level of zinc 40 mg/kg): 19.52%
- Zinc Excretion ([3]; level of zinc 40 mg/kg, excreta collected 24 h): 10.26 mg/bird
- Percentage of Retained Zinc ([3]; level of zinc 80 mg/kg): 47.23%
- Zinc Excretion ([3]; level of zinc 80 mg/kg, excreta collected 24 h): 9.17 mg/bird
- Percentage of Retained Zinc ([3]; mean of 40 and 80 mg/kg): 33.4%
- Zinc Excretion ([3]; mean of 40 and 80 mg/kg): 9.7 mg/bird
Compound: O=S(=O)([O-])[O-].[Zn+2] [SF, ZnSO4]
- Foot pad lesions % (42 days) ([1]; level of zinc 40 mg/kg): 18.98%
- Foot pad lesions % (42 days) ([1]; level of zinc 80 mg/kg): 25.09%
- Foot pad lesions % (42 days) ([1]; mean of 40 and 80 mg/kg): 22.0%
- Feed Conversion ([2]; level of zinc 40 mg/kg): 1.52 kg consumption/kg
- Feed Consumption [2, 4]: 4.81 kg/bird
- Weight Gain [2, 4]: 3.17 kg/bird
- Feed Conversion ([2]; level of zinc 80 mg/kg): 1.51 kg consumption/kg
- Feed Consumption [2, 5]: 4.73 kg/bird
- Weight Gain [2, 5]: 3.14 kg/bird
- Feed Conversion ([2]; level of zinc 100 mg/kg, trend based on results from 40 to 80 ppm of Zn): 1.52 kg consumption/kg
- Feed Conversion ([2]; mean): 1.51 ab kg consumption/kg
- Feed Consumption ([2]; mean of 40 and 80 mg/kg): 4.77 kg/bird
- Weight Gain ([2]; mean of 40 and 80 mg/kg): 3.16 kg/bird
